{"source": "patent US20230357134A1", "about": "“AGENTS FOR USE IN THE TREATMENT OF AMYLOIDOSIS” (UCL BUSINESS LTD, priority 2020, published 2023)", "key": {"isolated wild type TTR": {"target": "T1, isolated wild type TTR (Homo sapiens, UniProt P02766)", "T1 construct": "the non-covalently associated protomers, of mass 13,761, each contain 127 residues; His6 (N); TEV cleavage site (N); made in house; host or cells: E. coli BL21 (DE3)", "experiment": "Displacement of 125I-T4 from isolated wild type TTR in buffer", "settings": "concentration of ligand reducing binding of 125I-T4 by TTR by 50%; 125 nM TTR, pH 8.0, overnight 4° C.; mean of at least 3 replicates; read-out: D50 buffer", "protocol": "3. Evaluation of Ligand Activity Based on Capacity to Displace ^125I-Thyroxine (T4) from TTR in Buffer/Human Plasma 3.1 Displacement of ^125I-T4 from Isolated Wild Type TR.\nCompetition of ligands with T4 for binding by TTR was assayed quantitatively by a previously described procedure (Kolstoe et al., 2010). Briefly, a solution of 125 nM TTR in 0.1 M Tris-HCl, 0.1 M NaCl and 0.001 M EDTA buffer, pH 8.0, was incubated overnight at 4° C. in the presence of 1.07 nM ^125I T4 (1,200 μCi/μg, 200 μCi/ml, Perkin Elmer) and increasing concentrations of inhibitor (0-5 μM) in 40 μl final volume. ^125I T4 bound by TTR was separated from unbound T4 by gel filtration chromatography using Micro Bio Spin 6 columns (Bio-Rad) previously equilibrated with the reaction buffer containing 1% w/v BSA. After counting with a Wizard2 gamma counter (Perkin-Elmer) for 60 s, percentage binding was plotted against the logarithm of the inhibitor concentration, and D50 (concentration of ligand reducing the binding of T4 by TTR by 50%) was determined using a four parameters dose-response curve with GraphPad Prism 5 (Table 1)."}, "[1]": {"experiment": "Rat oral pharmacokinetics", "settings": "in vivo, 5 mg/kg, 5 mpk"}, "[2]": {"target": "T2, native recombinant wild type TTR (Homo sapiens, UniProt P02766)", "T2 construct": "the non-covalently associated protomers, of mass 13,761, each contain 127 residues; His6 (N); TEV cleavage site (N); made in house; host or cells: E. coli BL21 (DE3)", "experiment": "Kinetics of ligand binding by TTR (stopped flow quenching of intrinsic fluorescence)", "settings": "for T 1/2: TTR 1 μM with equimolar ligand, 37° C., PBS pH 7.4, t½ = ln 2/k", "protocol": "Ligand binding by native TTR quenches the intrinsic fluorescence of the protein. After mixing of ligands with TTR in solution, monitoring emission of the intrinsic fluorescence over time defines the rate at which the ligand is bound by the protein. The fast phase of these binding kinetics was characterized using an SFM 3000 stopped flow device coupled to a MOS500 spectrometer with a fluorescence detection system (Bio Logic, Claix, France) and a cell path length of 1.5 mm. TTR and ligands at 37° C. were mixed at final concentrations of 1 μM each in PBS pH 7.4 containing 0.9% v/v DMSO, and were excited at 280 nm for measurement of total fluorescence emission over 325 nm using a cut off filter. Kinetic data were acquired as the average of at least 3 experimental mixings and fitted to a first order reaction using the general formula y(t)=at +b+C exp (−kt), where y(t) is the observed fluorescence, a (slope) and b (offset) corresponding to the baseline. C and k are, respectively, amplitude and rate constant of the observed fluorescence change. Data were analysed using the Biokine software and values of half-life time (t½) correspond to ln 2/k. (Table 3)."}, "[3]": {"target": "T3, recombinant Val122Ile TTR (Homo sapiens, UniProt P02766, V142I)", "T3 construct": "the non-covalently associated protomers, of mass 13,761, each contain 127 residues; His6 (N); TEV cleavage site (N); made in house; host or cells: E. coli BL21 (DE3)", "experiment": "Mechano-enzymatic fibrillogenesis, TTR amyloid by ThT emission fluorescence", "type": "biochemical", "settings": "equimolar ligand, 96 h pellets, normalized to 100 % without ligand, mean (SD)", "protocol": "(§1) Briefly, fibrillogenesis of recombinant Val122Ile TTR at 0.5 mg/ml (9 μM) in PBS, pH 7.4 was carried out in glass vials stirred at 1,400 rpm (IKA magnetic stirrer) and 37° C. in the presence and in the absence of trypsin (5 ng/μl). […] Each ligand was tested at 4 different concentrations (4.5, 9, 18, 36 μM respectively) corresponding to the following drug/TTR molar ratios of 0.5:1, 1:1, 2:1 and 4:1. Several dilutions of the drug stock solutions were made in order to add the same volume of DMSO to each sample. Control samples without drug were added with the same volume of DMSO only. To allow complete binding of ligand by TTR each sample was incubated for 30 min at 37° C. before addition of trypsin. Spectrophotometric turbidity at 400 nm was used to monitor fibril formation over time until it reached a plateau at 96 h. Aggregation of TTR in the presence of equimolar ligand concentrations was quantified as spectrophotometric turbidity at 400 nm as a proportion of 100% for aggregation of the protein in the absence of ligands (Table 2).\nAt the end of the 96 h aggregation, pellets were harvested from each protein sample by 20 min centrifugation at 11,600 g, thoroughly rinsed with PBS to remove non-bound ligand, resuspended with 100 μl PBS, pH 7.4 containing 10 μM ThT in Costar 96-well black-wall plates. Bottom fluorescence values (excitation 440 nm, emission 480 nm) were recorded using a BMG LABTECH FLUostar Omega plate reader. Each value was normalized to the ThT signal of the TTR sample without ligand (Table 2)"}, "Rat IV pharmacokinetics": {"experiment": "Rat IV pharmacokinetics", "settings": "in vivo, 1 mg/kg, 1 mpk, read-out: Rat IV PK t½ (converted)"}, "(2H, 13C, 15N) TTR": {"target": "T4, (2H, 13C, 15N) TTR (Homo sapiens, UniProt P02766)", "T4 construct": "the non-covalently associated protomers, of mass 13,761, each contain 127 residues; His6 (N); TEV cleavage site (N); made in house; host or cells: E. coli BL21 (DE3)", "experiment": "2D NMR [1H,15N] TROSY of TTR-ligand complexes", "type": "binding", "settings": "equimolar ligand, 90 μM TTR, PBS pH 7.4, 310K", "protocol": "Using the same methodology as in Corazza 2019, we have studied the effect of equimolar addition of T304 or B23 to a sample of 90 μM (^2H, ^13C,^15N) TTR in PBS buffer, pH 7.4. 2D NMR [^1H,[…]] TROSY spectra were acquired with a Bruker AVANCE 800 MHz Spectrometer at 310K. After the addition of T304 or B23 to TTR some of the amide peaks of the apo form vanish and new peaks of the holo species appear indicating the binding of T304 or B23 by TTR. The changes occur for specific TTR residues where the protein senses the chemical effect of the ligands or where the ligands induce structural changes in the protein. […] Analysis of the chemical shift perturbations in the holo TTR structure confirms the involvement of the halogen binding pocket in the binding but also highlights an effect that is well beyond the ligand binding site, involving the outer helix and the outer beta strands."}, "[4]": {"target": "T5, TTR in whole human plasma (Homo sapiens, UniProt P02766)", "T5 construct": "TTR in whole plasma, from individuals homozygous for wild type TTR; from tissue; host or cells: whole human plasma", "experiment": "Displacement of 125I-T4 from TTR in normal human plasma", "type": "binding", "settings": "wild type TTR, 30 min 37° C. with ligand, immunoprecipitation, mean of at least 3 replicates, read-out: D50 plasma", "protocol": "3.2 Displacement of ^125-T4 from TTR in Normal Human Plasma.\nThe displacement of ^125I-T4 from TTR in whole plasma, from individuals homozygous for wild type TTR, was studied by incubating plasma with each ligand at increasing concentrations for 30 min at 37° C., further incubation with […] followed by measurement of the radioactivity in the immunoprecipitate obtained with anti-TTR antibodies. […] Percentage binding was plotted against the logarithm of the inhibitor concentration, and D50 (concentration of ligand reducing the binding of T4 by TTR by 50%) was determined using a four parameter dose-response curve with GraphPad Prism 5 (Table 1)."}, "[5]": {"target": "T3, recombinant Val122Ile TTR", "experiment": "Mechano-enzymatic fibrillogenesis, TTR aggregation by turbidity at 400 nm", "type": "biochemical", "settings": "equimolar ligand, Val122Ile TTR 9 μM, trypsin, 96 h; 100 % = protein without ligand; mean (SD)", "protocol": "as §1"}, "[6]": {"settings": "background statement; cited from earlier work"}}, "data": [{"compound": "CCc1oc(-c2cc(Cl)c(OCC[C@@H](O)[C@H](O)CCOc3c(Cl)cc(CCC(=O)O)cc3Cl)c(Cl)c2)nc1C(=O)O", "note": "[Compound B23, 2-[4-[(3R,4R)-6-[4-(2-carboxyethyl)-2,6-dichloro-phenoxy]-3,4-dihydroxy-hexoxy]-3,5-dichloro-phenyl]-5-ethyl-oxazole-4-carboxylic acid]", "values": [{"measurement": "IC50", "setting": "isolated wild type TTR", "result": 110, "unit": "nM"}, {"measurement": "Cmax", "setting": "[1]", "result": 2580, "unit": "ng/mL"}, {"measurement": "T 1/2", "setting": "[2]", "result": 1.216, "unit": "s"}, {"measurement": "% Aggregation (Fluorescence method)", "setting": "[3]", "result": "12.6 (4.42) %"}, {"measurement": "half-life", "setting": "Rat IV pharmacokinetics", "result": 5.11, "unit": "h"}, {"measurement": "binding mode by NMR chemical shift changes", "setting": "(2H, 13C, 15N) TTR", "result": "occupancy of both binding sites"}, {"measurement": "IC50", "setting": "[4]", "result": 9800, "unit": "nM"}, {"measurement": "% Aggregation (Turbidity method)", "setting": "[5]", "result": "4.41 (1.99) %"}]}, {"compound": "O=C(O)CCc1cc(Cl)c(OCCCOCCOc2c(Cl)cc(Nc3ccncc3C(=O)O)cc2Cl)c(Cl)c1", "note": "[Compound B27, 4-[4-[2-[3-[4-(2-carboxyethyl)-2,6-dichloro-phenoxy]propoxy]ethoxy]-3,5-dichloro-anilino]pyridine-3-carboxylic acid]", "values": [{"measurement": "IC50", "setting": "isolated wild type TTR", "result": 100, "unit": "nM"}, {"measurement": "Cmax", "setting": "[1]", "result": 316, "unit": "ng/mL"}, {"measurement": "T 1/2", "setting": "[2]", "result": 0.866, "unit": "s"}, {"measurement": "% Aggregation (Fluorescence method)", "setting": "[3]", "result": "12.0 (1.06) %"}, {"measurement": "half-life", "setting": "Rat IV pharmacokinetics", "result": 5.34, "unit": "h"}, {"measurement": "IC50", "setting": "[4]", "result": 2200, "unit": "nM"}, {"measurement": "% Aggregation (Turbidity method)", "setting": "[5]", "result": "4.24 (1.96) %"}]}, {"compound": "O=C(O)c1ccccc1Nc1cc(Cl)c(OCCCCCCCOc2c(Cl)cc(Nc3ccccc3C(=O)O)cc2Cl)c(Cl)c1", "note": "[mds84, reference compound]", "values": [{"measurement": "rate constant k of ligand-induced quenching reaction", "setting": "[2]; TTR and ligand 1 μM each", "result": 0.202, "unit": "s⁻¹"}, {"measurement": "burst phase amplitude", "setting": "[2]; millisecond time scale, fluorescence quenching", "result": 8, "unit": "%"}, {"measurement": "bioavailability for an oral drug", "setting": "[6]", "result": "very poor"}, {"measurement": "half-life in vivo", "setting": "[6]", "result": "short"}]}]}
